Test results reported in PubChem BioAssay AID1259407 (Chemical Carcinogenesis Research Information System (CCRIS), 2018).
Activity calls are given as the source filed them. No rule for the calls is given here.

Tested on: CCRIS mutagenicity, Ames/micronucleus/aberration tests
Experiment: CCRIS mutagenicity studies
[1] = Test System: AMES SALMONELLA TYPHIMURIUM, Strain/Indicator: TA98, Metabolic Activation: NONE, Method: STANDARD PLATE
[2] = Test System: AMES SALMONELLA TYPHIMURIUM, Strain/Indicator: TA100, Metabolic Activation: NONE, Method: STANDARD PLATE
[3] = Test System: AMES SALMONELLA TYPHIMURIUM, Strain/Indicator: TA98, Metabolic Activation: RAT, LIVER, S-9, AROCLOR 1254, Method: STANDARD PLATE
[4] = Test System: AMES SALMONELLA TYPHIMURIUM, Strain/Indicator: TA100, Metabolic Activation: RAT, LIVER, S-9, AROCLOR 1254, Method: STANDARD PLATE
[5] = Test System: AMES SALMONELLA TYPHIMURIUM, Strain/Indicator: TA98, Metabolic Activation: NONE, Method: PREINCUBATION
[6] = Test System: AMES SALMONELLA TYPHIMURIUM, Strain/Indicator: TA100, Metabolic Activation: NONE, Method: PREINCUBATION

Measured: mutagenic call

CCN(CCCl)c1ccc(OCCCCCNc2c3ccccc3nc3ccccc23)cc1
inactive: Test System: AMES SALMONELLA TYPHIMURIUM, Strain/Indicator: DG1588, Metabolic Activation: NONE, Method: STANDARD PLATE inactive; negative | Test System: AMES SALMONELLA TYPHIMURIUM, Strain/Indicator: DG1592, Metabolic Activation: NONE, Method: STANDARD PLATE inactive; negative | Test System: AMES SALMONELLA TYPHIMURIUM, Strain/Indicator: TA102, Metabolic Activation: NONE, Method: STANDARD PLATE inactive; negative | Test System: AMES SALMONELLA TYPHIMURIUM, Strain/Indicator: TA104, Metabolic Activation: NONE, Method: STANDARD PLATE inactive; negative | Test System: AMES SALMONELLA TYPHIMURIUM, Strain/Indicator: TA1535, Metabolic Activation: NONE, Method: STANDARD PLATE inactive; negative | Test System: AMES SALMONELLA TYPHIMURIUM, Strain/Indicator: TA1538, Metabolic Activation: NONE, Method: STANDARD PLATE inactive; negative | Test System: AMES SALMONELLA TYPHIMURIUM, Strain/Indicator: TA1975 (PKM101), Metabolic Activation: NONE, Method: STANDARD PLATE inactive; negative | Test System: AMES SALMONELLA TYPHIMURIUM, Strain/Indicator: TA1975, Metabolic Activation: NONE, Method: STANDARD PLATE inactive; negative | Test System: AMES SALMONELLA TYPHIMURIUM, Strain/Indicator: TA1978, Metabolic Activation: NONE, Method: STANDARD PLATE inactive; negative | Test System: AMES SALMONELLA TYPHIMURIUM, Strain/Indicator: TA4006, Metabolic Activation: NONE, Method: STANDARD PLATE inactive; negative
active: Test System: AMES SALMONELLA TYPHIMURIUM, Strain/Indicator: DG1593, Metabolic Activation: NONE, Method: STANDARD PLATE active; positive | [1] active; positive | [2] active; positive | Test System: AMES SALMONELLA TYPHIMURIUM, Strain/Indicator: TA1537 (PKM101), Metabolic Activation: NONE, Method: STANDARD PLATE active; positive | Test System: AMES SALMONELLA TYPHIMURIUM, Strain/Indicator: TA1537, Metabolic Activation: NONE, Method: STANDARD PLATE active; positive | Test System: AMES SALMONELLA TYPHIMURIUM, Strain/Indicator: TA1977, Metabolic Activation: NONE, Method: STANDARD PLATE active; positive | Test System: AMES SALMONELLA TYPHIMURIUM, Strain/Indicator: TA1978 (PKM101), Metabolic Activation: NONE, Method: STANDARD PLATE active; positive | Test System: AMES SALMONELLA TYPHIMURIUM, Strain/Indicator: TA4001, Metabolic Activation: NONE, Method: STANDARD PLATE active; positive

COc1cc(C=O)ccc1O
inactive: [1] inactive; negative | [3] inactive; negative | [2] inactive; negative | [4] inactive; negative | Test System: AMES SALMONELLA TYPHIMURIUM, Strain/Indicator: TA1535, Metabolic Activation: RAT, LIVER, S-9, AROCLOR 1254, Method: STANDARD PLATE inactive; negative | Test System: E. COLI, Strain/Indicator: CM561 LEXA, Metabolic Activation: NONE, Method: STANDARD PLATE inactive; negative | Test System: E. COLI, Strain/Indicator: CM611 UVRA/LEXA, Metabolic Activation: NONE, Method: STANDARD PLATE inactive; negative | Test System: E. COLI, Strain/Indicator: WP2 UVRA, Metabolic Activation: NONE, Method: STANDARD PLATE inactive; negative

O=[N+]([O-])c1ccc(F)c([N+](=O)[O-])c1
active: Test System: AMES SALMONELLA TYPHIMURIUM, Strain/Indicator: TA98(1,8-DNP6), Metabolic Activation: NONE, Method: PREINCUBATION active; positive | Test System: AMES SALMONELLA TYPHIMURIUM, Strain/Indicator: TA98(NR), Metabolic Activation: NONE, Method: PREINCUBATION active; positive | [5] active; positive | Test System: AMES SALMONELLA TYPHIMURIUM, Strain/Indicator: TA98, Metabolic Activation: RAT, LIVER, S-9, KANECHLOR 500, Method: PREINCUBATION active; positive | Test System: AMES SALMONELLA TYPHIMURIUM, Strain/Indicator: TA100(NR), Metabolic Activation: NONE, Method: PREINCUBATION active; positive | Test System: AMES SALMONELLA TYPHIMURIUM, Strain/Indicator: TA100/GSH-, Metabolic Activation: NONE, Method: PREINCUBATION active; positive | [6] active; positive | Test System: AMES SALMONELLA TYPHIMURIUM, Strain/Indicator: TA100, Metabolic Activation: RAT, LIVER, S-9, KANECHLOR 500, Method: PREINCUBATION active; positive

Nc1cc([N+](=O)[O-])cc(S(=O)(=O)O)c1O
inactive: Test System: AMES SALMONELLA TYPHIMURIUM, Strain/Indicator: TA97, Metabolic Activation: HAMSTER, LIVER, S-9, AROCLOR 1254 (10%), Method: PREINCUBATION inactive; negative | Test System: AMES SALMONELLA TYPHIMURIUM, Strain/Indicator: TA97, Metabolic Activation: HAMSTER, LIVER, S-9, AROCLOR 1254 (30%), Method: PREINCUBATION inactive; negative | Test System: AMES SALMONELLA TYPHIMURIUM, Strain/Indicator: TA97, Metabolic Activation: NONE, Method: PREINCUBATION inactive; negative | Test System: AMES SALMONELLA TYPHIMURIUM, Strain/Indicator: TA97, Metabolic Activation: RAT, LIVER, S-9, AROCLOR 1254 (10 OR 30%), Method: PREINCUBATION inactive; negative | Test System: AMES SALMONELLA TYPHIMURIUM, Strain/Indicator: TA98, Metabolic Activation: HAMSTER, LIVER, S-9, AROCLOR 1254 (10 OR 30%), Method: PREINCUBATION inactive; negative | [5] inactive; negative | Test System: AMES SALMONELLA TYPHIMURIUM, Strain/Indicator: TA98, Metabolic Activation: RAT, LIVER, S-9, AROCLOR 1254 (10 OR 30%), Method: PREINCUBATION inactive; negative | Test System: AMES SALMONELLA TYPHIMURIUM, Strain/Indicator: TA100, Metabolic Activation: HAMSTER, LIVER, S-9, AROCLOR 1254 (10 OR 30%), Method: PREINCUBATION inactive; negative | [6] inactive; negative | Test System: AMES SALMONELLA TYPHIMURIUM, Strain/Indicator: TA100, Metabolic Activation: RAT, LIVER, S-9, AROCLOR 1254 (10 OR 30%), Method: PREINCUBATION inactive; negative | Test System: AMES SALMONELLA TYPHIMURIUM, Strain/Indicator: TA1535, Metabolic Activation: HAMSTER, LIVER, S-9, AROCLOR 1254 (10 OR 30%), Method: PREINCUBATION inactive; negative | Test System: AMES SALMONELLA TYPHIMURIUM, Strain/Indicator: TA1535, Metabolic Activation: NONE, Method: PREINCUBATION inactive; negative | Test System: AMES SALMONELLA TYPHIMURIUM, Strain/Indicator: TA1535, Metabolic Activation: RAT, LIVER, S-9, AROCLOR 1254 (10%), Method: PREINCUBATION inactive; negative

Cc1cc2c(C)c3ccccc3c(C)c2cc1C
active: [1] active; positive | [3] active; positive | [4] active; positive
inactive: [2] inactive; negative

O=C1NC(c2ccc([N+](=O)[O-])s2)Nc2ccccc21 (configuration not stated)
active: [1] active; positive | [2] active; positive

CCNC(=O)CNC(=O)C=[N+]=[N-]
active: Test System: UDS RODENT CELLS, Strain/Indicator: THY INCORP (NON-S-PHASE), Metabolic Activation: NONE, Method: AUTORADIOGRAPHY active; positive

O=C1Nc2ccc([N+](=O)[O-])cc2C1=O
active: Test System: AMES SALMONELLA TYPHIMURIUM, Strain/Indicator: TA98, Metabolic Activation: HAMSTER, LIVER, S-9, AROCLOR 1254, Method: STANDARD PLATE active; positive | [1] active; positive | [3] active; positive | Test System: AMES SALMONELLA TYPHIMURIUM, Strain/Indicator: TA100, Metabolic Activation: HAMSTER, LIVER, S-9, AROCLOR 1254, Method: STANDARD PLATE active; positive | [2] active; positive | [4] active; positive | Test System: MOUSE LYMPHOMA, Strain/Indicator: L5178Y (TK+/TK-), Metabolic Activation: NONE, Method: SUSPENSION/PLATE active; positive. reevaluation of results: positive | Test System: MOUSE LYMPHOMA, Strain/Indicator: L5178Y (TK+/TK-), Metabolic Activation: RAT, LIVER, S-9, AROCLOR 1254, Method: SUSPENSION/PLATE active; positive. reevaluation of results: equivocal
